# Test results as given in PubChem BioAssay (NCI).
#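 Exposure lasted 48 hours, with cells grown in 96-well plates and compounds tested at five concentrations. GI50 = concentration required for 50% inhibition of growth. Definition used: TGI = concentration required for complete inhibition of growth.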
# Experiments:
# Test in all cases: NCI anticancer screen, dose series, 48 h
# ACHN renal = system: ACHN renal
# HCT-116 colon = system: HCT-116 colon
# IGROV1 ovarian = system: IGROV1 ovarian
# K-562 leukemia = system: K-562 leukemia
# KM12 colon = system: KM12 colon
# OVCAR-8 ovarian = system: OVCAR-8 ovarian
# SF-295 CNS = system: SF-295 CNS
# SK-MEL-28 melanoma = system: SK-MEL-28 melanoma
# HT29 colon = system: HT29 colon
# SW-620 colon = system: SW-620 colon
Structure (SMILES),TGI (ACHN renal) [µM],GI50 (HCT-116 colon) [µM],TGI (HCT-116 colon) [µM],GI50 (IGROV1 ovarian) [µM],GI50 (K-562 leukemia) [nM],TGI (K-562 leukemia) [µM],GI50 (KM12 colon) [µM],TGI (KM12 colon) [µM],GI50 (OVCAR-8 ovarian) [µM],GI50 (SF-295 CNS) [µM],TGI (SF-295 CNS) [µM],GI50 (SK-MEL-28 melanoma) [µM],TGI (SK-MEL-28 melanoma) [µM],TGI (HT29 colon) [µM],TGI (IGROV1 ovarian) [µM],TGI (OVCAR-8 ovarian) [µM],TGI (SW-620 colon) [µM],GI50 (ACHN renal) [µM],GI50 (HT29 colon) [µM],GI50 (SW-620 colon) [µM]
COc1cc2c(cc1O)CCN[C@@]21CS[C@H]2c3c(OC(C)=O)c(C)c4c(c3C(COC1=O)N1C2C2c3c(cc(C)c(OC)c3O)CC([C@@H]1O)N2C)OCO4 (some centres undefined),0.0012,0.00305,> 0.525,0.000783,< 0.001,1.54e-05,0.00337,0.0161,0.00149,0.000788,0.0277,0.00242,0.00682,–,–,–,–,–,–,–
C#CCCCCC#CC1CCCC1C1=CC(=O)c2ccccc21 (centres undefined),19.9,–,2.91,–,–,8.14,–,19.6,–,–,16.8,–,18.5,15.9,19.4,3.52,6.39,–,–,–
CN(C)CCNc1ccc2nnn3c4ccc(Cl)cc4c(=O)c1c23,12.3,–,14.6,–,–,22.7,–,20.8,–,–,15.7,–,18,15.9,38.7,16.9,18,–,–,–
COc1cc2c(cc1OC)C(C1(O)CCCCC1)NCC2 (centres undefined),> 100,–,> 100,–,–,> 100,–,> 100,–,–,> 100,–,> 100,> 100,> 100,> 100,> 100,–,–,–
C[n+]1ccccc1/C=C/c1ccc2c(c1)OCO2,> 10,–,> 10,–,–,> 10,–,> 10,–,–,> 10,–,> 10,> 10,> 10,> 10,> 10,–,–,–
N=c1nc(N)nc(N)n1-c1ccc(S(N)(=O)=O)cc1,> 100,–,> 100,–,–,> 100,–,> 100,–,–,> 100,–,> 100,> 100,> 100,> 100,> 100,–,–,–
CCCNCC(O)/C=C/[Si](C)(C)C (centres undefined) (tested in a mixture with another compound),> 100,–,> 100,–,–,> 100,–,> 100,–,–,> 100,–,> 100,> 100,> 100,> 100,> 100,–,–,–
O=C(N/N=C/c1cc(Br)cc(Br)c1[O-])c1ccccc1O.O=C(N/N=C/c1cc(Br)cc(Br)c1[O-])c1ccccc1O.[Cl-].[Fe+3],18.3,–,10.2,–,2590,5.63,–,81.6,–,–,5.98,–,–,13.2,30.6,33.4,14,–,–,–
Oc1ccc2ccccc2c1N=Nc1ccc(N=Nc2ccccc2)cc1,> 100,–,> 100,–,–,> 100,–,> 100,–,–,> 100,–,> 100,> 100,> 100,> 100,> 100,–,–,–
Cc1c(Cl)c(S(N)(=O)=O)cc(S(N)(=O)=O)c1NC(=O)c1ccc(Cl)cc1,> 100,–,> 100,–,–,> 100,–,> 100,–,–,> 100,–,> 100,> 100,> 100,> 100,> 100,–,–,–
CCCCCCc1ccc(O)cc1O,–,–,> 100,–,–,> 100,–,> 100,–,–,> 100,–,> 100,> 100,> 93.8,> 100,> 100,–,–,–
C/C=C1/CN2CC[C@@H]3c4ccccc4N4[C@H](C(=O)OC)[C@H]1C[C@H]2[C@]34/C=C/C1=COC[C@@H]2[C@H]1C[C@H]1c3c(c4ccccc4n3C)C[C@@H]2N1C,7.43,–,7.61,–,–,25,–,–,–,–,8.18,–,8.88,5.92,8.81,8.04,7.6,–,–,–
C=C(/C=C/C=C(/CCC=C(C)C)COC(C)=O)[C@@H]1CC[C@]2([C@H](CCCO)/C(=C(/C)C=O)CC[C@]2(C)O)[C@@H]1O,27.6,–,45.6,–,–,30.2,–,32.4,–,–,19.6,–,26.9,28.4,36.2,52.3,22,–,–,–
Nc1nc(SCCC/C=C/B(O)O)nc2c1ncn2C1OC(CO)C(O)C1O (centres undefined),> 243,–,> 243,–,–,> 243,–,> 243,–,–,> 243,–,> 243,> 243,> 243,> 243,> 243,–,–,–
NC(Cc1ccc2oc3cc(=O)c4ccccc4c-3nc2c1)C(=O)O (centres undefined),> 100,–,76.8,–,–,77.1,–,> 100,–,–,55.5,–,59,72.6,> 100,> 100,80.9,–,–,–
Cc1nnc2sc(-c3ccc(N)cc3)nn12,> 100,–,> 100,–,–,> 100,–,> 100,–,–,> 100,–,> 100,> 100,> 100,> 100,> 100,–,–,–
CCOC(=O)C1=C(C)N(Cc2ccc(Cl)cc2Cl)C2(O)C(OC)CC(=O)C3C(=O)N(c4ccccc4)C(=O)C132 (centres undefined),15.2,–,4.12,–,–,3.87,–,9.03,–,–,20.2,–,4.37,4,16.9,6.19,7.15,–,–,–
CN[C@@H]1[C@H](O)[C@H](NC)[C@H]2O[C@@]3(O)C(=O)C[C@@H](C)O[C@H]3O[C@@H]2[C@H]1O,> 100,–,> 100,–,–,> 100,–,> 100,–,–,> 100,–,> 100,> 100,> 100,> 100,> 100,–,–,–
O=S(=O)(O)c1cc(O)c2c(O)c(N=Nc3ccc(/C=C/c4ccc(N=Nc5c(S(=O)(=O)O)cc6cc(S(=O)(=O)O)cc(O)c6c5O)cc4S(=O)(=O)O)c(S(=O)(=O)O)c3)c(S(=O)(=O)O)cc2c1,> 100,–,> 100,–,–,> 100,–,> 100,–,–,> 100,–,> 100,> 100,> 100,> 100,> 100,–,–,–
CC(=O)O[C@H]1CC[C@]2(C)[C@H]3C(=O)C=C4[C@@H]5C[C@](C)(C(=O)N6CCCNCC6)CC[C@]5(C)CC[C@@]4(C)[C@]3(C)CC[C@H]2C1(C)C,3.02,–,–,–,1270,4.27,1.71,3.21,–,1.76,3.2,1.85,3.29,3.17,–,–,3.22,1.66,1.5,1.67
N=C(N)SC1c2ccccc2-c2cc([N+](=O)[O-])ccc21 (centres undefined),18.9,–,16.3,–,–,22,–,11.4,–,–,15.7,–,17.5,13.5,18,37.1,22.1,–,–,–
CCOC(=O)C1=C(C)N2CCCOC2(C)C(C(=O)OC)C1c1cccc([N+](=O)[O-])c1 (centres undefined),> 100,–,> 100,–,–,> 100,–,> 100,–,–,> 100,–,> 100,> 100,> 100,> 100,> 100,–,–,–
CC1(C)[C@@H]2C[C@H]1C(Cc1ccccc1C[C@H]1c3cc(-c4ccccn4)ncc3[C@H]3C[C@@H]1C3(C)C)c1cc(-c3ccccn3)ncc12 (some centres undefined),4.83,–,10.1,–,–,> 100,–,13.4,–,–,> 55.1,–,> 100,> 100,26.2,> 25.5,> 100,–,–,–
O=[N+]([O-])/C=C/c1cccc(F)c1,6.84,–,8.86,–,–,–,–,10.3,–,–,30.2,–,5.87,10.3,> 100,32,8.88,–,–,–
